{
  "source": "patent US8349875B2",
  "about": "“Dual-acting antihypertensive agents” (Theravance, Inc., priority 2007, dated 2013)",
  "target": "T1, human AT1 receptor (Homo sapiens, UniProt P30556)",
  "T1 construct": "expressed in transfected cells; host or cells: CHO-K1",
  "T1 sequence (P30556 1-359)": "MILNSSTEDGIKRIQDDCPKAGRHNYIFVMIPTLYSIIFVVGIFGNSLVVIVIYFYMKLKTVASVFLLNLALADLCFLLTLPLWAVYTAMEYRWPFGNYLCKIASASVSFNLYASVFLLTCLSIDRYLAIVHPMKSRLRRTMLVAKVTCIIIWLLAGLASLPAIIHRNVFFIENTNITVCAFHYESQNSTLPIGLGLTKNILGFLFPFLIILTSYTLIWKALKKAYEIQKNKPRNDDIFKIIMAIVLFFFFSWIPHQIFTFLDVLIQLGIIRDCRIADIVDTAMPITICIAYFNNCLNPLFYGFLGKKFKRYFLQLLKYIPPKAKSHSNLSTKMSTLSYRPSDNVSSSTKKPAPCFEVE",
  "assay": "AT1 radioligand binding assay (Assay 1)",
  "settings": "displacement of [Eu]AngII 2 nM, membranes of CHO-K1 cells expressing human AT1 receptor",
  "method": "These in vitro assays were used to assess the ability of test compounds to bind to the AT1 and the AT2 receptors.\nChinese hamster ovary (CHO-K1) derived cell lines stably expressing the cloned human AT1 or AT2 receptors, respectively, were grown in HAM's-F12 medium supplemented with 10% fetal bovine serum, 10 μg/ml penicillin/streptomycin, and 500 μg/ml geneticin in a 5% CO2 humidified incubator at 37° C. AT2 receptor expressing cells were grown in the additional presence of 100 nM PD123,319 (AT2 antagonist). When cultures reached 80-95% confluence, the cells were washed thoroughly in PBS and lifted with 5 mM EDTA. […]\nBinding assays were performed in 96-well Acrowell filter plates (Pall Inc., cat. #5020) in a total assay volume of 100 μL, with 0.2 μg membrane protein for membranes containing the human AT1 receptor, or 2 μg membrane protein for membranes containing the human AT2 receptor in assay buffer (50 mM Tris/HCl pH 7.5 at 20° C., 5 mM MgCl2, 25 μM EDTA, 0.025% BSA). […] Non-specific binding was determined in the presence of 10 μM unlabeled angiotensin-II. […] Filter-bound [Eu]AngII was quantitated immediately on a Fusion plate reader (PerkinElmer) using Time Resolved Fluorescence (TRF). Binding data were analyzed by nonlinear regression analysis with the GraphPad Prism Software package (GraphPad Software, Inc., San Diego, Calif.) using the 3-parameter model for one-site competition. […]",
  "data": [
    {"substance": "4′-2-Butyl-4-chloro-5-[((S)-2-mercaptomethyl-4-methylpentanoylamino)methyl]imidazol-1-ylmethylbiphenyl-2-carboxylic Acid [Example 1]", "values": [
      {"measurement": "pKi at the AT1 receptor", "result": "greater than 7.0"}
    ]}
  ]
}
